The supplement of paper PMC10307832

What was measured:
Assay in all cases: relative viability (nuclei count vs DMSO), 5 days (fraction); higher = more cells survive
[1] = compound: C1CNCCC1C2=CC(=NN2)C3=CC=NC=C3 + Cc1nc(NC(=O)N2CCC[C@H]2C(N)=O)sc1-c1ccnc(C(C)(C)C(F)(F)F)c1 [Alpelisib] (partner 2 µM)
Summary of the method: (§1)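 Lung cancer cell lines in 1536-well plates were dosed by pin tool the day after seeding, either with one drug alone or with a fixed anchor-drug dose plus five library-drug doses (not always all listed) in √10 steps. After 5 days, cells were fixed and their nuclei stained in one step (final 0.05% Triton X-100, 1% formaldehyde, 1 ug/ml Hoechst), then counted on 4× images. Relative viability is the nuclei count in treated wells divided by that in vehicle wells. Values are medians of duplicate plates.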

[2] = compound: C[C@@H](N)c1ccc(C(=O)Nc2ccnc3[nH]ccc23)cc1 + CS(=O)(=O)CCNCc1ccc(-c2ccc3ncnc(Nc4ccc(OCc5cccc(F)c5)c(Cl)c4)c3c2)o1 [Lapatinib] (partner 2 µM)
Summary of the method: as §1

[3] = compound: C1CNCCC1C2=CC(=NN2)C3=CC=NC=C3 + O=C(c1cc(Cc2n[nH]c(=O)c3ccccc23)ccc1F)N1CCN(C(=O)C2CC2)CC1 [Olaparib] (partner 8 µM)
Summary of the method: as §1

[4] = compound: C[C@@H](N)c1ccc(C(=O)Nc2ccnc3[nH]ccc23)cc1 + CC(=O)Nc1cccc(-n2c(=O)n(C3CC3)c(=O)c3c(Nc4ccc(I)cc4F)n(C)c(=O)c(C)c32)c1 [Trametinib] (partner 0.02 µM)
Summary of the method: as §1

Cell Line | relative viability ([1]; first compound 0.08 µM) | relative viability ([1]; first compound 0.8 µM) | relative viability ([1]; first compound 2.53 µM) | relative viability ([1]; first compound 8 µM) | relative viability ([2]; first compound 0.04 µM) | relative viability ([2]; first compound 0.1265 µM) | relative viability ([2]; first compound 0.4 µM) | relative viability ([2]; first compound 1.265 µM) | relative viability ([2]; first compound 4 µM) | relative viability ([3]; first compound 0.08 µM) | relative viability ([3]; first compound 0.8 µM) | relative viability ([3]; first compound 2.53 µM) | relative viability ([3]; first compound 8 µM) | relative viability ([4]; first compound 0.04 µM) | relative viability ([4]; first compound 0.1265 µM) | relative viability ([4]; first compound 0.4 µM) | relative viability ([4]; first compound 1.265 µM) | relative viability ([4]; first compound 4 µM)
NCI-H1666 | 0.907 | 0.849 | 1.18 | 1.13 | 0.724 | 0.618 | 0.967 | 0.835 | 0.928 | 0.704 | 0.768 | 0.806 | 0.745 | 0.852 | 0.903 | 0.981 | 0.916 | 0.926
NCI-H1734 | 0.684 | 0.618 | 0.768 | 0.706 | 1.02 | 1.15 | 1.01 |  | 1.12 | 0.581 | 0.639 | 0.598 | 0.635 | 0.735 | 0.698 | 0.708 | 0.668 | 0.582
NCI-H1755 | 0.938 | 0.837 | 0.906 | 0.863 | 0.874 | 1 | 1.05 | 0.705 | 0.685 | 0.974 | 0.922 | 0.857 | 0.852 | 0.768 | 0.752 | 0.761 | 0.707 | 0.644
NCI-H1792 | 0.637 | 0.519 | 0.773 | 0.618 | 0.923 | 0.922 | 0.966 | 0.607 | 0.783 | 0.504 | 0.385 | 0.471 | 0.353 | 0.5 | 0.465 | 0.597 | 0.698 | 0.324
NCI-H1793 | 0.659 | 0.569 | 0.783 | 0.739 | 0.828 | 0.564 | 0.907 |  | 0.888 | 0.748 |  | 0.902 | 0.953 | 0.46 | 0.442 | 0.452 |  | 0.61
NCI-H1915 | 1 | 1.06 | 1.07 | 1.09 | 0.908 | 0.972 | 0.966 |  | 0.848 | 0.265 | 0.272 | 0.269 | 0.25 |  | 0.299 | 0.298 |  | 0.239
NCI-H1944 | 0.85 | 0.601 | 0.83 | 0.938 | 0.759 | 0.841 | 0.769 |  | 0.699 | 0.403 | 0.384 | 0.389 | 0.384 | 0.479 | 0.412 | 0.467 | 0.503 | 0.402
NCI-H1975 | 0.667 | 0.622 | 0.58 | 0.629 | 0.833 | 0.765 | 0.922 | 0.88 | 0.546 | 0.87 | 0.894 | 0.936 | 0.778 | 0.286 | 0.4 | 0.449 | 0.194 | 0.233
NCI-H1993 | 0.654 | 0.668 | 0.699 | 0.669 | 0.791 | 0.858 |  | 0.776 | 0.87 | 0.937 | 0.918 | 1.02 | 1.21 | 0.607 | 0.519 |  | 0.569 | 0.511
NCI-H2009 | 1.25 | 1.16 | 1.13 | 1.14 | 0.682 | 0.736 | 0.916 | 0.114 | 0.747 | 0.683 | 0.749 | 0.648 | 0.728 | 0.219 | 0.268 | 0.236 | 0.21 | 0.214
